# According to patent publication US4988708A, “Analgesic and anti-inflammatory 4-OH quinoline carboxylic acid derivatives” (Roussel Uclaf, priority 1984, dated 1991):
# System: chronic arthritis of adjuvant
# Experiment: Anti-inflammatory activity, chronic arthritis of adjuvant (preventative treatment)
# Type: in vivo
# Details: Rattus norvegicus, 408 h; male rats, oral, day 0 to day before kill on day 17; dose reducing increase in volume of hind paws by 50% (table, section A); read-out: DA50 (the source's name)
# Experimental: A. Anti-inflammatory activity chronic arthritis of adjuvant (preventative treatment)
# (§1) The injection of adjuvant of "Freund" type into a hind paw causes in rats the rapid appearance of a primary inflammatory lesion in this paw and then after a latent period of 13 to 15 days, causes a secondary arthritis affecting in particular the other hind paw. The test was carried out on male rats aged from 42 to 50 days which received by intraplantar injection 0.1 ml of adjuvant of "Freund"type (suspension in vaseline oil of 6 mg per ml. of killed mycobacterium butyricum). The animals received the product studied orally from day 0 (day of the injection of the adjuvant) until the day before they were killed which occured on day 17. The arthritic control animals and normal control animals received only the vehicle. The assessment criteria of the activity of the substances studied were the increase in the volume of hind paws injected (primary and secondary inflammation) and not injected (secondary inflammation) in comparison with the average volume of paws corresponding to the normal controls. The DA50 was determined, that is to say, the dose which reduced the increase in volume of the hind paws of the treated animals in comparison to those of the control animals by 50% and the results are reported in the following Table.
# C. Anti-inflammatory activity chronic arthritis of adjuvant (preventative treatment)
# as §1, with “"Freund" type” for “"Freund"type”, “say” for “say,”, “50%.” for “50% and the results are reported in the following Table.”
row,SMILES,ED50 [mg/kg]
1,"CCC(=O)OC(CC)c1nc2c(C(F)(F)F)cccc2c(O)c1C(=O)Nc1nccs1 (stereo not shown) [Example 12, 4-hydroxy-2-[1-(1-oxopropoxy)-propyl]-N-(2-thiazolyl)-8-(trifluoromethyl)-3-quinoline carboxamide]",0.8
2,"CC(O)C(O)c1nc2c(C(F)(F)F)cccc2c(O)c1C(=O)Nc1nccs1 (stereo not shown) [Example 3, 2-(1,2-dihydroxypropyl)-4-hydroxy-N-(2-thiazolyl)-8-trifluoromethyl-3-quinoline carboxamide]",3
3,"CCC(=O)OCC(OC(=O)CC)c1nc2c(C(F)(F)F)cccc2c(O)c1C(=O)Nc1nccs1 (stereo not shown) [Example 4, 2-[1,2-bis-(1-oxopropoxy)ethyl]-4-hydroxy-N-(2-thiazolyl)-8-trifluoromethyl-3-quinolinecarboxamide]",1
4,"CCC(OC(=O)CN)c1nc2c(C(F)(F)F)cccc2c(O)c1C(=O)Nc1nccs1 (stereo not shown) [Example 16, 1-[4-hydroxy-3-[(2-thiazolylamino)-carbonyl]-8-(trifluoromethyl)-2quinolinyl]-propyl amino acetate dichlorohydride]",1
5,"CCCC(=O)OC(CC)c1nc2c(C(F)(F)F)cccc2c(O)c1C(=O)Nc1nccs1 (stereo not shown) [Example 17, 1-[4-hydroxy-3-[(2-thiazolylamino)-carbonyl]-8-trifluoromethyl)-2quinolinyl]-propyl butanoate]",1.3
6,"CCC(=O)OC(COC)c1nc2c(C(F)(F)F)cccc2c(O)c1C(=O)Nc1nccs1 (stereo not shown) [Example 5, 2-[2-methoxy-1-(1-oxopropoxy)-ethyl]-4-hydroxy-N-(2-thiazolyl)-8-trifluoromethyl-3-quinoline carboxamide]",5
7,"COCC(O)c1nc2c(C(F)(F)F)cccc2c(O)c1C(=O)Nc1nccs1 (stereo not shown) [Example 1, 4-hydroxy-2-(1-hydroxy-2-methoxy-ethyl)-N-(2-thiazolyl)-8-(trifluoromethyl)-3-quinoline carboxamide]",2
8,"CCC(OC(=O)c1cc2ccccc2[nH]1)c1nc2c(C(F)(F)F)cccc2c(O)c1C(=O)Nc1nccs1 (stereo not shown) [Example 28, 1-[4-hydroxy-3-{[(2-aminothiazolyl)-carbonyl]-8-trifluoromethyl2-quinolinyl]-propyl]1H-indole-2-carboxylate]",2
9,"O=C(Nc1nccs1)c1c(C(O)CO)nc2c(C(F)(F)F)cccc2c1O (stereo not shown) [Example 2, 2-(1,2-dihydroxyethyl)-4-hydroxy-N-(2-thiazolyl)-8-trifluoromethyl-3-quinoline carboxamide]",0.7

# Same assay, conditions: Rattus norvegicus, 408 h; male rats, oral, day 0 to day before kill on day 17; dose reducing increase in volume of hind paws by 50% (text, section C); read-out: DA50 (the source's name)
row,SMILES,ED50 [mg/kg]
1,"CCC(O)c1nc2c(C(F)(F)F)cccc2c(O)c1C(=O)Nc1nccs1 (single isomer, unassigned; isomer b) [Step A of Example 27 (B-isomer), 4-hydroxy-2-(1-hydroxypropyl)-N-(2-thiazolyl)-8-trifluoromethyl-3-quinoline carboxamide isomer B]",0.5

# Same assay, conditions: male rats, oral, day 0 to day before kill on day 17; dose reducing increase in volume of hind paws by 50% (table, section A); 24480 min
row,SMILES,DA50 [mg/kg]
1,CCCc1ncc(C(=O)OC(CC)c2nc3c(C(F)(F)F)cccc3c(O)c2C(=O)Nc2nccs2)s1 (stereo not shown) [Example 29],2

# System: stomachs
# Experiment: Gastric ulceration effect
# Type: in vivo
# Details: female rats, oral, seven hours; graphically determined; maximum ulceration index is 300
# Experimental: B. Gastric ulceration effect
# The test was done on female rats weighing 120 to 150 g on a water diet for 24 hours at the time of the treatment divided into random groupd. The products were administered orally and seven hours later, the animals were killed and their stomachs opened along the great curvature, washed in an isotonic solution of sodium chloride and spread apart by wiping with a cotton pad soaked in the same solution. The degree of ulcerous lesions, in number and in size, was estimated on a scale from 0 to 3 by two observers unware of the treatments. The notation 1 indicated the presence of an obvious ulcer or of several punctiform ulcers.
# To take in account also the percentage of rats having ulcers (degree of ulceration greater than 0.5, notation attributed to a hyperemia or to Petechiae often encountered in a control which had fasted) an ulceration index was calculated for each group according to the formula [formula]
# The dose corresponding to an ulceration index of 100 or DU 100 was graphically determined (the maximum ulceration index is 300).
row,SMILES,DU 100 (dose corresponding to an ulceration index of 100)
1,"CCC(=O)OC(CC)c1nc2c(C(F)(F)F)cccc2c(O)c1C(=O)Nc1nccs1 (stereo not shown) [Example 12, 4-hydroxy-2-[1-(1-oxopropoxy)-propyl]-N-(2-thiazolyl)-8-(trifluoromethyl)-3-quinoline carboxamide]",greater than 300 mg/kg
2,"CCCC(=O)OC(CC)c1nc2c(C(F)(F)F)cccc2c(O)c1C(=O)Nc1nccs1 (stereo not shown) [Example 17, 1-[4-hydroxy-3-[(2-thiazolylamino)-carbonyl]-8-trifluoromethyl)-2quinolinyl]-propyl butanoate]",greater than 300 mg/kg
